Data as given in article PMC10603063, “A quantitative method for determination of colistin E2 methanesulphonate in human plasma by ^15N-labeled colistin E2” (Scientific Reports, 2023).
Like-named read-outs stand apart in the source and are kept apart here. Peptide text beside a SMILES is read from it.

What was measured:
[1] = test system: Bordetella bronchitica ATCC4617; test: Cylinder-plate potency method of the United States pharmacopoeia; type: cell-based
Source text: In addition to at least 30 minor polymyxins with very similar physiochemical properties, colistin consists of colistin E1 and colistin E2 (Fig. 1)[6]. According to European Pharmacopoeia records, the components with the same molecular weight as colistin E1 are colistin E1-7MOA and E1-I, and colistin E2 is colistin E3, E2-I, and E1-Nva. In short, except for the principal components colistin E1 and E2, other components with similar physicochemical properties account for nearly 20% of colistin. These components could not be separated from colistin E1/E2 using mobile phases containing formic acid but were identified as a single peak of polymyxin E1/E2 by HPLC. This neglected problem actually brings some interferes with single component or colistin quantification. In the process of developing CMS, we successfully purified single components of colistin E1 and E2 with a purity of more than 99% by preparative HPLC using a specific salt mobile phase.

[2] = for long-term storage stability: colistin E2-spiked samples, at least 93 days
Method: (§1) Referring to Zhou et al.[10], for each plasma sample, 100 µL of 5% ammonia was added to a mixture containing 100 µL of CMS E2 calibration plasma standards or QCs and 20 µL of 15 µg/ml IS solution. After vortexing, the mixtures were loaded onto WCX SPE plates. Before loading the sample, the WCX SPE plates were preconditioned with 1 ml methanol followed by 1 mL water to activate the extraction. The plate was sequentially washed with 1 mL of water, 1 mL of methanol, 1 mL of 70% ACN with 2% ammonia, and 1 ml 0.5% FA. Subsequently, 300 µL of 70% ACN with 6% FA was used to elute the analytes twice. Total eluents (600 µL) were collected with an SPE 96-Deep Square Well collection plate, mixed in a 96-well plate mixer, and analyzed by UHPLC-MS/MS.
(§2) The stability of colistin E2 was evaluated at two levels (low and high QCs).
(§3) The hydrolysis of CMS E2 is temperature dependent; the lower the temperature, the slower the hydrolysis rate. The samples were processed in ice water. Therefore, we studied their stability in ice-water. In the presence of CMS E2 (the spiked concentration was 50 times the concentration of colistin, which can cover the clinical samples), the stability of colistin E2 was also evaluated under the following conditions: on the bench top in ice water for 21 h, four freeze–thaw cycles, storage at − 20 ℃ and − 80 ℃ (at least 98 days), and storage of extracts at 4 ℃ in an auto-sampler for 22.5 h.
The method was used for the stability study, and all the following medicinal solutions and plasma samples were prepared and used in an ice water bath and stored at -20 °C after use.
2.6.4 Preparation of plasma quality control sample QC_mix for CMS E2/Colistin E2

[3] = Method: as §2
as §3, with “[…],” for “on the bench top in ice water for 21 h,”

[4] = stock solution in methanol: water (1: 1)
Method: as §2
The standard curve stock solution and the quality control stock solution for colistin E2 need to be prepared from different weighing. All solutions were kept at -20°C.
The colistin E2 reference was accurately weighed and dissolved with an appropriate amount of methanol: water (1: 1) to prepare a stock solution SS-A with a concentration of 3 mg/mL.

[5] = remark: listed apart in the source
Method: as §1, §2, §3

Compound | potency ([1]; cylinder-plate method, United States pharmacopoeia, test bacteria Bordetella bronchitica ATCC4617) | antibacterial activity (comparison of purified single components) ([1]; single components purified to more than 99% by preparative HPLC) | benchtop stability ([2]; colistin E2-spiked plasma, low and high QCs, without CMS E2, bench top in ice water for 24 h) | freeze–thaw stability ([2]; colistin E2-spiked plasma, low and high QCs, without CMS E2, four freeze–thaw cycles) | long-term storage stability ([2]; low and high QCs, −20 ℃) | long-term storage stability ([2]; low and high QCs, −80 ℃) | %Change, benchtop stability ([2]; human plasma (EDTA-K2) spiked with CMS E2 (50 times colistin concentration; QC_mix 24/0.48 µg/mL), 21 h in ice water, UHPLC-MS/MS) | %Change, long-term stability ([2]; human plasma spiked with CMS E2, 41 d in freezer (−20℃), UHPLC-MS/MS) | percentage of change in blood spiked with CMS E2 ([3]; blood spiked with CMS E2, ice water for 60 min) | stability in fresh whole blood ([3]; fresh whole blood (EDTA-K2), bench top in ice water for 66 min, without CMS E2) | stability of stock solutions ([4]; stored at ambient for 21 h) | stability of stock solutions, long-term ([4]; −20 ℃ for at least 97 days) | duration of stability in the auto-sampler ([5]; extracts after WCX SPE removal of CMS E2, auto-sampler (4℃)) | stability of extracts ([5]; extracts at 4 ℃ in an auto-sampler for 65.5 h, without CMS E2) | %Change, processed sample stability ([5]; sample extracts of matrix spiked with CMS E2, 22.5 h in an auto-sampler (4℃), UHPLC-MS/MS)
colistin E2 methanesulphonate [CMS E2] | 611 µg/mg |  |  |  |  |  |  |  |  |  |  |  |  |  | 
CC(C)CCCCC(=O)N[C@@H](CCN)C(=O)N[C@H](C(=O)N[C@@H](CCN)C(=O)N[C@H]1CCNC(=O)[C@H]([C@@H](C)O)NC(=O)[C@H](CCN)NC(=O)[C@H](CCN)NC(=O)[C@H](CC(C)C)NC(=O)[C@@H](CC(C)C)NC(=O)[C@H](CCN)NC1=O)[C@@H](C)O [colistin E2] (HELM PEPTIDE1{[CC(C)CCCCC(=O)[*:2]].[Dab].T.[Dab].[Dab].[Dab].[dL].L.[Dab].[Dab].T}$PEPTIDE1,PEPTIDE1,5:R3-11:R2$$$V2.0) |  | higher than that of E1 | no degradation | no degradation | no degradation | no degradation | 2.0% | 1.3% | less than 15% | no degradation | no degradation | no degradation | at least 22.5 h | no degradation | 4.4%
